Results from patent publication US7504362B2, “Pesticidal compositions” (Merial Limited, priority 2002, dated 2009).

Tested on: Ctenocephalides felis, Diabrotica undecimpunctata, Nephotettix cincticeps or Rhipicephalus sanguineus
Test: Pooled statement: active in one or more of the above tests (Methods A to E)
Type: in vivo
Settings: active = reaching the threshold of Method A, B, C, D or E; test not given per compound
Protocol: The following representative test procedures, using compounds of the invention, were conducted to determine the parasiticidal and pesticidal activity of compounds of the invention.
A test container was filled with 10 adults of Ctenocephalides felis. A glass cylinder was closed on one end with parafilm and placed on top of the test container. The test compound solution was then pipetted into bovine blood and added to the glass cylinder. The treated Ctenocephalides felis were held in this artificial dog test (blood 37° C., 40-60% relative humidity; Ctenocephalides felis 20-22° C., 40-60% relative humidity) and assessment performed at 24 and 48 hours after application. Active compounds gave at least 90% control of Ctenocephalides felis at a test concentration of 5 ppm or less.
Two days before application, seeds of maize were soaked in water under warm conditions to elicit fast germination. One day before application, eggs of Diabrotica undecimpunctata were transferred to one half of a Japanese filter paper placed in a plastic petri dish. Afterwards, a sprouted maize seed was placed on a moistened pad beside the filter paper. Three drops of 200 microliters of test compound solution were carefully pipetted onto the egg. The remainder of the solution was placed on the maize and then the Petri dish was closed. The treated eggs in the Petri dishes were held in a climate chamber for 6 days. The compound efficacy (percentage of dead eggs and/or larvae in comparison to untreated control) was assessed 6 days after application using a binocular microscope.
Active compounds gave at least 90% control of Diabrotica undecimpunctata at a test concentration of 10 ppm.
The leaves of 12 rice plants having a stem length of 8 cm were dipped for 5 seconds into an aqueous solution of the formulated test compound. After the solution had run off, the rice plants treated in this manner were placed in a Petri dish and populated with about 20 larvae (L3 stage) of Nephotettix cincticeps. The Petri dish was closed and then stored in a climate chamber (16 hours of light/day, 25° C., 40-60% relative humidity). After 6 days storage, the percentage mortality of leafhopper larvae was determined.
Active compounds gave at least 98% mortality of Nephotettix cinciceps larvae at a test concentration of 100 ppm.
Solutions of the test compounds were dropped onto filter paper, dried and the filter paper placed into test tubes and infested with 10 adults of Ctenocephalides felis. The treated Ctenocephalides felis were held in a climate chamber (26° C., 80% RH) and the percentage efficacy assessed 24 hours and 48 hours after application in comparison with the untreated control.
Active compounds gave at least 70% contact control of Ctenocephalides felis at a test concentration of 1000 ppm.
Solutions of the test compounds were dropped onto filter paper, dried and the filter paper placed into test tubes and infested with 20-30 larvae (L1) of Rhipicephalus sanguineus and the tubes closed with a clip. The treated Rhipicephalus sanguineus were held in a climate chamber (25° C., 90% RH) and the percentage efficacy assessed 24 hours after application in comparison with the untreated control. Active compounds gave at least 70% contact control of Rhipicephalus sanguineus at a test concentration of 100 ppm.

| SMILES | active in one or more of the above tests |
| --- | --- |
| CS(=O)(=O)Nc1c(SC(F)(F)F)c(C#N)nn1-c1c(Cl)cc(C(F)(F)F)cc1Cl [Compound 1-1] | active |
| CN(c1c(SC(F)(F)F)c(C#N)nn1-c1c(Cl)cc(C(F)(F)F)cc1Cl)S(C)(=O)=O [Compound 1-2] | active |
| CN(c1c([S+]([O-])C(F)(F)F)c(C#N)nn1-c1c(Cl)cc(C(F)(F)F)cc1Cl)S(C)(=O)=O (centres unmarked) [Compound 1-16] | active |
| CCS(=O)(=O)N(C)c1c(SC(F)(F)F)c(C#N)nn1-c1c(Cl)cc(C(F)(F)F)cc1Cl [Compound 1-44] | active |
| CCS(=O)(=O)N(C)c1c(S(=O)(=O)C(F)(F)F)c(C#N)nn1-c1c(Cl)cc(C(F)(F)F)cc1Cl [Compound 1-72] | active |
| CC(C)S(=O)(=O)N(C)c1c([S+]([O-])C(F)(F)F)c(C#N)nn1-c1c(Cl)cc(C(F)(F)F)cc1Cl (centres unmarked) [Compound 1-85] | active |
| CCCCS(=O)(=O)N(C)c1c([S+]([O-])C(F)(F)F)c(C#N)nn1-c1c(Cl)cc(C(F)(F)F)cc1Cl (centres unmarked) [Compound 1-87] | active |
| CN(c1c([S+]([O-])C(F)(F)F)c(C#N)nn1-c1c(Cl)cc(C(F)(F)F)cc1Cl)S(=O)(=O)C(F)(F)F (centres unmarked) [Compound 1-90] | active |
| CCCCCCCCS(=O)(=O)N(C)c1c([S+]([O-])C(F)(F)F)c(C#N)nn1-c1c(Cl)cc(C(F)(F)F)cc1Cl (centres unmarked) [Compound 1-93] | active |
| CCCCCCCCCS(=O)(=O)N(C)c1c([S+]([O-])C(F)(F)F)c(C#N)nn1-c1c(Cl)cc(C(F)(F)F)cc1Cl (centres unmarked) [Compound 1-94] | active |
| CCCCCCCCCCS(=O)(=O)N(C)c1c([S+]([O-])C(F)(F)F)c(C#N)nn1-c1c(Cl)cc(C(F)(F)F)cc1Cl (centres unmarked) [Compound 1-95] | active |
| CCCCCCCCCCCCS(=O)(=O)N(C)c1c([S+]([O-])C(F)(F)F)c(C#N)nn1-c1c(Cl)cc(C(F)(F)F)cc1Cl (centres unmarked) [Compound 1-96] | active |
| C=CS(=O)(=O)N(C)c1c([S+]([O-])C(F)(F)F)c(C#N)nn1-c1c(Cl)cc(C(F)(F)F)cc1Cl (centres unmarked) [Compound 1-97] | active |
| CN(c1c([S+]([O-])C(F)(F)F)c(C#N)nn1-c1c(Cl)cc(C(F)(F)F)cc1Cl)S(=O)(=O)C=Cc1ccccc1 (centres unmarked) [Compound 1-114] | active |
| CN(c1c(S(=O)(=O)C(F)(F)F)c(C#N)nn1-c1c(Cl)cc(C(F)(F)F)cc1Cl)S(=O)(=O)C=Cc1ccccc1 [Compound 1-115] | active |
| CS(=O)(=O)[N-]c1c(SC(F)(F)F)c(C#N)nn1-c1c(Cl)cc(C(F)(F)F)cc1Cl.[Na+] [Compound 1-116] | active |
| CCS(=O)(=O)Nc1c([S+]([O-])C(F)(F)F)c(C#N)nn1-c1c(Cl)cc(C(F)(F)F)cc1Cl (centres unmarked) [Compound 1-117] | active |
| CN(c1c([S+]([O-])C(F)(F)F)c(C#N)nn1-c1c(Cl)cc(C(F)(F)F)cc1Cl)S(=O)(=O)C(Cl)(Cl)Cl (centres unmarked) [Compound 1-118] | active |
| CN(c1c([S+]([O-])C(F)(F)F)c(C#N)nn1-c1c(Cl)cc(C(F)(F)F)cc1Cl)S(=O)(=O)C(Cl)Cl (centres unmarked) [Compound 1-119] | active |

| SMILES | active in one or more of the above tests |
| --- | --- |
| CCCCS(=O)(=O)N(C)c1c(S(=O)(=O)C(F)(F)F)c(C#N)nn1-c1c(Cl)cc(C(F)(F)F)cc1Cl [Compound 1-120] | active |
| CN(c1c(S(=O)(=O)C(F)(F)F)c(C#N)nn1-c1c(Cl)cc(C(F)(F)F)cc1Cl)S(=O)(=O)CCCCl [Compound 1-121, 1-(2,6-Dichloro-4-trifluoromethylphenyl)-5-[N-(3-chloropropylsulfonyl)-N-methylamino]-3-cyano-4-trifluoromethylsulfonylpyrazole] | active |
| CC(C)S(=O)(=O)N(C)c1c(SC(F)(F)F)c(C#N)nn1-c1c(Cl)cc(C(F)(F)F)cc1Cl [Compound 1-122] | active |
| CCCCCCCCS(=O)(=O)N(C)c1c([S+]([O-])C(F)(F)F)c(C#N)nn1-c1c(Cl)cc(C(F)(F)F)cc1Cl (centres unmarked) [Compound 1-123] | active |
| CCCCCCCCCS(=O)(=O)N(C)c1c(SC(F)(F)F)c(C#N)nn1-c1c(Cl)cc(C(F)(F)F)cc1Cl [Compound 1-124] | active |
| CCCCCCCCCCS(=O)(=O)N(C)c1c(SC(F)(F)F)c(C#N)nn1-c1c(Cl)cc(C(F)(F)F)cc1Cl [Compound 1-125] | active |
| CCCCCCCCCCCCS(=O)(=O)N(C)c1c([S+]([O-])C(F)(F)F)c(C#N)nn1-c1c(Cl)cc(C(F)(F)F)cc1Cl (centres unmarked) [Compound 1-126] | active |
| CN(c1c(SC(F)(F)F)c(C#N)nn1-c1c(Cl)cc(C(F)(F)F)cc1Cl)S(=O)(=O)Cc1ccccc1 [Compound 2-2] | active |
| CN(c1c([S+]([O-])C(F)(F)F)c(C#N)nn1-c1c(Cl)cc(C(F)(F)F)cc1Cl)S(=O)(=O)Cc1ccccc1 (centres unmarked) [Compound 2-16, 1-(2,6-Dichloro-4-trifluoromethylphenyl)-3-cyano-5-(N-benzylsulfonyl-N-methylamino)-4-trifluoromethylsulfinylpyrazole] | active |
| CN(c1c(S(=O)(=O)C(F)(F)F)c(C#N)nn1-c1c(Cl)cc(C(F)(F)F)cc1Cl)S(=O)(=O)Cc1ccccc1 [Compound 2-30] | active |
| CN(c1c(SC(F)(F)F)c(C#N)nn1-c1c(Cl)cc(C(F)(F)F)cc1Cl)S(=O)(=O)Cc1ccc(Cl)cc1 [Compound 2-45] | active |
| CN(c1c(SC(F)(F)F)c(C#N)nn1-c1c(Cl)cc(C(F)(F)F)cc1Cl)S(=O)(=O)Cc1ccc(Cl)c(Cl)c1 [Compound 2-48] | active |
| CN(c1c(SC(F)(F)F)c(C#N)nn1-c1c(Cl)cc(C(F)(F)F)cc1Cl)S(=O)(=O)Cc1ccc(F)cc1 [Compound 2-51] | active |
| CN(c1c(SC(F)(F)F)c(C#N)nn1-c1c(Cl)cc(C(F)(F)F)cc1Cl)S(=O)(=O)Cc1cccc(C(F)(F)F)c1 [Compound 2-57] | active |
| CN(c1c(SC(F)(F)F)c(C#N)nn1-c1c(Cl)cc(C(F)(F)F)cc1Cl)S(=O)(=O)Cc1ccc(C(F)(F)F)cc1 [Compound 2-58] | active |
| Cc1ccc(CS(=O)(=O)N(C)c2c(SC(F)(F)F)c(C#N)nn2-c2c(Cl)cc(C(F)(F)F)cc2Cl)cc1 [Compound 2-74] | active |
| CN(c1c([S+]([O-])C(F)(F)F)c(C#N)nn1-c1c(Cl)cc(C(F)(F)F)cc1Cl)S(=O)(=O)Cc1ccc(Cl)cc1 (centres unmarked) [Compound 2-80] | active |
| CN(c1c([S+]([O-])C(F)(F)F)c(C#N)nn1-c1c(Cl)cc(C(F)(F)F)cc1Cl)S(=O)(=O)Cc1ccc(F)cc1 (centres unmarked) [Compound 2-86] | active |
| CN(c1c([S+]([O-])C(F)(F)F)c(C#N)nn1-c1c(Cl)cc(C(F)(F)F)cc1Cl)S(=O)(=O)Cc1cccc(C(F)(F)F)c1 (centres unmarked) [Compound 2-92] | active |
